Experimental data as given in paper PMC7933930, “Development of a small molecule that corrects misfolding and increases secretion of Z α1‐antitrypsin” (EMBO Molecular Medicine, 2021).

Experiments:
Z α1‐antitrypsin [1] = biological target: T1, Z α1‐antitrypsin (Homo sapiens, UniProt P01009, E366K); assay: Rapid refolding by snap dilution, non‐denaturing PAGE; format: biochemical; set-up: purified from the plasma of Z α1‐antitrypsin homozygotes; from tissue; host or cells: human plasma of Z α1-antitrypsin homozygotes; conditions: snap dilution from denaturant
MRGPRX2 = MRGPRX2 (Homo sapiens, UniProt Q96LB1); assay: Off‐target panel: MRGPRX2 Agonist (DRX); format: cell-based; conditions: read-out: Mean (PXC50)
Description: (§1) GSK716 selectivity and PK properties were profiled in order to investigate the suitability of GSK716 for progression into in vivo studies and the potential for taking it forward as a clinical candidate for testing in humans. Since GSK716 results in loss of inhibitory activity of α1‐antitrypsin, the effect of the compound was assessed on other closely related serpins. […] Furthermore, there were no off‐target effects in a panel of assays considered predictive of known safety liabilities that precluded further development of GSK716 (Table EV1).

Z α1‐antitrypsin [2] = biological target: T1, Z α1‐antitrypsin; assay: Circulating monomeric Z α1‐antitrypsin in plasma of Z α1‐antitrypsin transgenic mice; format: in vivo, mouse; set-up: random insertion of the human Z α1‐antitrypsin gene; from tissue; host or cells: hemizygous Z α1-antitrypsin transgenic mice (liver, plasma)
Description: GSK716 was evaluated in a transgenic mouse model with an engineered random insertion of the human Z α1‐antitrypsin gene (Teckman et al, 2004). […] Further, older mice have larger α1‐antitrypsin inclusions that may be more difficult to reverse and any changes would be more difficult to detect than in younger animals. The PK‐PD relationship of GSK716 was explored by dosing Z α1‐antitrypsin transgenic animals with 10, 30 or 100 mg/kg GSK716 three times a day. Blood and liver were harvested on day 6 at 3 h (~ C max) and 8 h (C min) after the dose for the measurement of total and free drug in both tissues. Blood was also harvested for the measurement of monomeric Z α1‐antitrypsin in plasma. Total concentrations of GSK716 were determined by LC‐MS/MS, and the free drug in both tissues was determined using equilibrium dialysis to determine free fraction in the samples, subsequently used to derive unbound concentrations. […] Both free and total drug concentrations of GSK716 at the targeted site of action in the liver were equivalent to those in blood (Table 2).
A significant fraction of the total Z α1‐antitrypsin in the circulation is in the polymeric conformation (Tan et al, 2014). There are no antibodies that are specific for monomeric Z α1‐antitrypsin and so to directly determine its concentration, a deconvolution method was developed based on immunoassays with antibodies for either total or polymeric α1‐antitrypsin, and calibration curves with purified monomeric and polymeric Z α1‐antitrypsin. Monomeric Z α1‐antitrypsin was measured in plasma samples following 6 days of dosing, and levels were normalised to each animals’ pre‐dose control levels to account for the natural variation of Z α1‐antitrypsin between animals. […] Total drug levels and changes in Z α1‐antitrypsin following 3 days of dosing were indistinguishable from those following 6 days of dosing. There was no effect on circulating serum albumin after 5 days of dosing which provides evidence that GSK716 is specific for Z α1‐antitrypsin. Moreover, the effects are not mediated by metabolites of GSK716 as the major metabolites have much reduced or no binding to α1‐antitrypsin.
Plasma standards of monomeric and polymeric Z α1‐antitrypsin were prepared and assayed with an antibody mix comprising a 1:160 dilution of rabbit polyclonal anti‐ α1‐antitrypsin (Abcam product 9373), 0.23 µg/ml terbium anti‐mouse, 4.5 µg/ml Alexa488 goat anti‐rabbit, 0.17 µg/ml mouse anti‐total‐ α1‐antitrypsin monoclonal 3C11 and 2 µg/ml mouse 2C1 anti‐polymeric‐ α1‐antitrypsin. After a 16‐h incubation at 20°C, TR‐FRET detection was performed on an Envision plate reader (Perkin Elmer).
Plots of the FRET ratio (acceptor/donor signal) versus sample dilution result in bell‐shaped curves due to the hook effect. The polymer Z α1‐antitrypsin concentration was determined by comparing the peak positions of these bell‐shaped curves for plasma samples with those for polymer calibration samples. The polymer concentration in the plasma sample and the polymer calibration curve was then used to derive the contribution of polymer to the FRET signal in the total α1‐antitrypsin assay at the signal peak, enabling determination of the concentration of monomeric Z α1‐antitrypsin.
Hemizygous female Z α1‐antitrypsin transgenic mice were 13–15 weeks of age at start of study. Drugs were administered via oral gavage three times a day at 8‐h intervals at 10 ml/Kg as a suspension in aqueous methylcellulose containing 0.5% w/v Tween 80. […]

KCNQ1/minK = KCNQ1/minK (Homo sapiens, UniProt P51787); assay: cell-based
Description: as §1

Cannabinoid CB2 = Cannabinoid CB2 (Homo sapiens, UniProt P34972); assay: Off‐target panel: Cannabinoid CB2; format: cell-based
Description: as §1

PXR (rat) = PXR (rat) (Rattus norvegicus, UniProt Q9R1A7); assay: Off‐target panel: PXR (rat); format: cell-based
Description: as §1

NK1 (TACR1) [3] = biological target: T2, NK1 (TACR1) (Homo sapiens, UniProt P25103); assay: Off‐target panel: NK1 (TACR1); format: cell-based; conditions: Antagonist, read-out: Mean (PXC50)
Description: as §1

NK1 (TACR1) [4] = biological target: T2, NK1 (TACR1); assay: Off‐target panel: NK1 (TACR1) (DRX); format: cell-based; conditions: Antagonist, read-out: Mean (PXC50)
Description: as §1

Adrenergic α1B = Adrenergic α1B (Homo sapiens, UniProt P35368); assay: Off‐target panel: Adrenergic α1B; format: cell-based
Description: as §1

OPRM1 = OPRM1 (Homo sapiens, UniProt P35372); assay: Off‐target panel: OPRM1 (DRX); format: cell-based
Description: as §1

Acetyl- cholinesterase = Acetyl- cholinesterase (Homo sapiens, UniProt P22303); assay: Off‐target panel: Acetyl- cholinesterase; format: biochemical
Description: as §1

Adrenergic α2C = Adrenergic α2C (Homo sapiens, UniProt P18825); assay: Off‐target panel: Adrenergic α2C; format: cell-based
Description: as §1

T1 sequence (P01009 25-418 E366K): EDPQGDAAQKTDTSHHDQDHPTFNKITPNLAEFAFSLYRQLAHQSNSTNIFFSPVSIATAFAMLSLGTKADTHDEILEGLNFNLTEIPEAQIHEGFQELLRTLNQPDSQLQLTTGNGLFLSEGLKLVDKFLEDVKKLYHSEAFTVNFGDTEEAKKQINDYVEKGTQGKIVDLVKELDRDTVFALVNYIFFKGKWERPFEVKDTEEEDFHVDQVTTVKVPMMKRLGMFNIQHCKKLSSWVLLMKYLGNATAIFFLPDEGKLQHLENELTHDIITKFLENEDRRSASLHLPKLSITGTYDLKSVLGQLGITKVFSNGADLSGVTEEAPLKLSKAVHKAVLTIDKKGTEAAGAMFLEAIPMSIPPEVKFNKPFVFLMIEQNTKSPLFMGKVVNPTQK
T2 sequence (P25103 whole entry, species assumed): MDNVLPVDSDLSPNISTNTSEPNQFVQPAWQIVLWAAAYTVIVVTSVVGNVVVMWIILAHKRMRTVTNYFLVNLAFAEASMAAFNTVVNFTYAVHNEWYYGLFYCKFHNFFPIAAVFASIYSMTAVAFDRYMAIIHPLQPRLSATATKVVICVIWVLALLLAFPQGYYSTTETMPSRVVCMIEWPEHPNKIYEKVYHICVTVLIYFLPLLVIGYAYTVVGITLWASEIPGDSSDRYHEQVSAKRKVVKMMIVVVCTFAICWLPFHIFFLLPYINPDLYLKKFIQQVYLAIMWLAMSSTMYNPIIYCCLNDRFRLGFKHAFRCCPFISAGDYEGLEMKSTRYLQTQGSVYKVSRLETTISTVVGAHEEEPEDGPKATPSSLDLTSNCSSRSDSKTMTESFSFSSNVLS
Sequence of Cannabinoid CB2 (P34972 whole entry): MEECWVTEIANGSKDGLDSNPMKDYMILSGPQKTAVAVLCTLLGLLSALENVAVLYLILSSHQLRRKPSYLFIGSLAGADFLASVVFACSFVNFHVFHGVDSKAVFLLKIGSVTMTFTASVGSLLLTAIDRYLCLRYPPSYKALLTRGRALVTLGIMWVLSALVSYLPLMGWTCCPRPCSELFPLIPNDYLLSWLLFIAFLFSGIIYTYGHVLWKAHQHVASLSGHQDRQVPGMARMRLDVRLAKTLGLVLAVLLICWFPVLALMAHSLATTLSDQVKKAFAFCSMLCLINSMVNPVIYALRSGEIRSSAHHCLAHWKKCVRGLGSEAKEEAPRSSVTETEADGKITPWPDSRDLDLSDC
Sequence of Acetyl- cholinesterase (P22303 32-614, species assumed): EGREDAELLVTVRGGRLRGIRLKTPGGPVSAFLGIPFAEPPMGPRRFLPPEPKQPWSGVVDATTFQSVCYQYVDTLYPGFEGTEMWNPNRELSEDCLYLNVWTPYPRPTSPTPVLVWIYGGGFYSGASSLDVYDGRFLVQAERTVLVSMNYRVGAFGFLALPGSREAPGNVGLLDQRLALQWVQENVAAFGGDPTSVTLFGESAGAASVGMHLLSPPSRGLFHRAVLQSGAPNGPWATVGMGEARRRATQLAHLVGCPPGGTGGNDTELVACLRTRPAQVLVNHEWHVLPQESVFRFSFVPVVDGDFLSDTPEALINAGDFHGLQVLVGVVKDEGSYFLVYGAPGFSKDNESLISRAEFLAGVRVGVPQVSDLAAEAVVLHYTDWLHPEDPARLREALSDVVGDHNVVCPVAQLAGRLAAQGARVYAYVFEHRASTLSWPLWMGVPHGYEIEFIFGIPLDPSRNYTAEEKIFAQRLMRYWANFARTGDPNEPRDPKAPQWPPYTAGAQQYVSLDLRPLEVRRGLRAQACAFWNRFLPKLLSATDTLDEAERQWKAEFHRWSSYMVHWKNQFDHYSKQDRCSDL
Sequence of Adrenergic α2C (P18825 whole entry): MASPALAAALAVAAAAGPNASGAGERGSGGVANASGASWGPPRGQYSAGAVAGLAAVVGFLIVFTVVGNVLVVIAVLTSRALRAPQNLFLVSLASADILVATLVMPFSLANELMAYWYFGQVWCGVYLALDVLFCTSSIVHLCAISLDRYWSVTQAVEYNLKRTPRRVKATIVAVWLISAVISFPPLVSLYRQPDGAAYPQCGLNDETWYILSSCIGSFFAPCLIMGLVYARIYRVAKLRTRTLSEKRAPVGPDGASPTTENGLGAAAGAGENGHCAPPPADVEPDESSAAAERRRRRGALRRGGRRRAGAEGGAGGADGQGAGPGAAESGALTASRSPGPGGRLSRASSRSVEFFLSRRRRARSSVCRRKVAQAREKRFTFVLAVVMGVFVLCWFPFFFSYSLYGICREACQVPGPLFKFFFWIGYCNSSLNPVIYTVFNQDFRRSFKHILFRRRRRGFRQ
Sequence of OPRM1 (P35372 whole entry, species assumed): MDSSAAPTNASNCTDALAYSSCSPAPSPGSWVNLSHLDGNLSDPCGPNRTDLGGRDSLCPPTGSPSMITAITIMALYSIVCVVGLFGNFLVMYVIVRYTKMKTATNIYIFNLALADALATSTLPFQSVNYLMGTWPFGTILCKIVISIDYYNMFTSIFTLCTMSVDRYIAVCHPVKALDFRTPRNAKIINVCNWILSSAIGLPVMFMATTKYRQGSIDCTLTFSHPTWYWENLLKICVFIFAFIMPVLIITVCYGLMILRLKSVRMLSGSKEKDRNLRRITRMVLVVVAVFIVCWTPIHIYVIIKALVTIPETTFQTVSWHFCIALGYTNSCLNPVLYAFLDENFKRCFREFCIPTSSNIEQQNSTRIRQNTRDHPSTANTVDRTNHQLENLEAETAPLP
Sequence of MRGPRX2 (Q96LB1 whole entry, species assumed): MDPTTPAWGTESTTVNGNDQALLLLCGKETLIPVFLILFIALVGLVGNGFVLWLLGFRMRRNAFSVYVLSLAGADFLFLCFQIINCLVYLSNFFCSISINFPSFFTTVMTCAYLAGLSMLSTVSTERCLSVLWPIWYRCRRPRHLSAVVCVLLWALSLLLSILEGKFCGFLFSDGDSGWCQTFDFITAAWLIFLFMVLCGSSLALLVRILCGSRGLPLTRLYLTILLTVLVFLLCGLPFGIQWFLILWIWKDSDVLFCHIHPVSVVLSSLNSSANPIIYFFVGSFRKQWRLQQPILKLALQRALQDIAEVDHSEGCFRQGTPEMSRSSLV
Sequence of Adrenergic α1B (P35368 whole entry): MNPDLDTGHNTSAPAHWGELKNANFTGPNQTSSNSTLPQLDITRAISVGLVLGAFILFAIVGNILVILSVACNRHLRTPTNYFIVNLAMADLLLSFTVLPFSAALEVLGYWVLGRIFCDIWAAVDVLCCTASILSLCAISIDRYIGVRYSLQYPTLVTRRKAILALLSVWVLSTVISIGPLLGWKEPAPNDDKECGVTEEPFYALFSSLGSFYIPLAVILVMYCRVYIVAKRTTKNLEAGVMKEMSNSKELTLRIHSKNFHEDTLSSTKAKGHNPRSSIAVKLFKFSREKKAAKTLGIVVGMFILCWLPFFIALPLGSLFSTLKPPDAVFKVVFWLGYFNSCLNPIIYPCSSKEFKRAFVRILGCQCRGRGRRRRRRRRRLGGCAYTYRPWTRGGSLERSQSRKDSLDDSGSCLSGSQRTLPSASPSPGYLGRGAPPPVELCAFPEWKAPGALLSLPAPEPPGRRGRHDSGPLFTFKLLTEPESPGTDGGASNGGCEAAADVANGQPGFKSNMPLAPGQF
Sequence of PXR (rat) (Q9R1A7 whole entry): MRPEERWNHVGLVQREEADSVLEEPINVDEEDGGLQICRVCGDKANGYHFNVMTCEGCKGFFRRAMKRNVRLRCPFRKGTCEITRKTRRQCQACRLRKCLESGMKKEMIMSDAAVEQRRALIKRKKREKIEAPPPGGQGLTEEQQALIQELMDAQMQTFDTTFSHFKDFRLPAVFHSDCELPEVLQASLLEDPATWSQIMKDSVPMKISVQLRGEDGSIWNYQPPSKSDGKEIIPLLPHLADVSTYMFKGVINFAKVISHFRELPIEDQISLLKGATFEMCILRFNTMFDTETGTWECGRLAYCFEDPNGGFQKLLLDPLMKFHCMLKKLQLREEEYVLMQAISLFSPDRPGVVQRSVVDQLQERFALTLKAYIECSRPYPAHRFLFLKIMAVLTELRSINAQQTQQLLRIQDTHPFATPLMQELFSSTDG

SMILES: CCC[C@@H](NC(=O)c1cccc2c1CC(=O)N2)[C@@H](O)c1cccc(F)c1C [GSK716]
- misfolded by‐product of M* on refolding of the Z variant (Z α1‐antitrypsin [1]): corrected at stoichiometric concentrations and above
- EC50 (MRGPRX2): > 100 µM
- change in circulating Z α1‐antitrypsin (Z α1‐antitrypsin [2]; 10 mg/kg three times a day, oral, 6 days of dosing): significant, dose‐dependent increases
- change in circulating Z α1‐antitrypsin (Z α1‐antitrypsin [2]; 30 mg/kg three times a day, oral, 6 days of dosing): significant, dose‐dependent increases
- mean increase of monomeric Z α1‐antitrypsin in plasma over pre‐dosing baseline (Z α1‐antitrypsin [2]; 100 mg/kg three times a day, days 15 and 21 of dosing): sevenfold to eightfold
- mean increase in circulating monomeric Z α1‐antitrypsin levels over pre‐dose (Z α1‐antitrypsin [2]; 100 mg/kg three times a day, oral, 6 days of dosing): sevenfold
- increase in circulating levels of Z α1‐antitrypsin (Z α1‐antitrypsin [2]; Z α1‐antitrypsin transgenic mice, within 3 days): sevenfold
- IC50 (KCNQ1/minK): > 25.1 µM
- EC50 (Cannabinoid CB2): > 100 µM
- EC50 (PXR (rat)): 12.6 µM
- IC50 (NK1 (TACR1) [3]): > 25.1 µM
- IC50 (NK1 (TACR1) [4]): > 25.1 µM
- IC50 (Adrenergic α1B): > 25.1 µM
- EC50 (OPRM1): 10 µM
- IC50 (Acetyl- cholinesterase): 100 µM
- EC50 (Adrenergic α2C): > 100 µM
